The target in this experiment is T1, human OX2R (Homo sapiens, UniProt O43614).
T1 construct: expressed in transfected cells; host or cells: Chinese hamster ovary (CHO) cells, kept under G418 selection
T1 sequence (O43614 1-444): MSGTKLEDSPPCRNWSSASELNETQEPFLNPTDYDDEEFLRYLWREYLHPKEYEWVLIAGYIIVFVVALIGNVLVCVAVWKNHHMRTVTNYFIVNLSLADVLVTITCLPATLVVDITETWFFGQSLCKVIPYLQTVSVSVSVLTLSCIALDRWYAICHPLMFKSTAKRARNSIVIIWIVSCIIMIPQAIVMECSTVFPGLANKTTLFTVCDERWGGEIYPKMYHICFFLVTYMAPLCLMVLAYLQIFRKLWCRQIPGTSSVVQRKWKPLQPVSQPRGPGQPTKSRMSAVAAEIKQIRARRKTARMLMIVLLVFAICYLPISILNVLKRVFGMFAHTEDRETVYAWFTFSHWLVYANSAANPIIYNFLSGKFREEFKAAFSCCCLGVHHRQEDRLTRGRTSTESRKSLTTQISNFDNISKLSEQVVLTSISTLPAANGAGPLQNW
Put plainly: IPOne (IP-One) orexin receptor agonist assay in CHO cells expressing human OX2R. The class given is cell-based. The conditions noted are these: for EC50: CHO cells expressing human OX2R, IP-One detection, 2 hours incubation, four parameter logistic fit, read-out: OX2R Potency, EC50; for % max agonist effect (Emax): human OX2R, percentage of sample raw value/mean max effect (reference compound at 1 uM with 100% activity).

SMILES strings stand for the structures.

The source of these data is US12312332B2 (Merck Sharp & Dohme LLC., priority 2019, dated 2025).

For the compound `CC(C)(O)c1cc(N2CC[C@H](NS(C)(=O)=O)[C@@H]2CO[C@H]2CC[C@@H](c3ccccc3)CC2)ccn1` [Example 44, N-((2R,3S)-1-(2-(2-hydroxypropan-2-yl)pyridin-4-yl)-2-((((CIS)-4-phenylcyclohexyl)oxy)methyl)pyrrolidin-3-yl)methanesulfonamide], the EC50 (in general, the concentration giving half of the maximal effect) was > 10000 nM and the “% max agonist effect (Emax)” value amounted to 22.0%.
Regarding `Cn1cnc(N2CC[C@H](NS(C)(=O)=O)[C@@H]2CO[C@H]2CC[C@@H](c3ccccc3)CC2)n1` (relative stereo) [Example 5, N-((CIS)-1-(1-methyl-1H-1,2,4-triazol-3-yl)-2-((((CIS)-4-phenylcyclohexyl)oxy)methyl)pyrrolidin-3-yl)methanesulfonamide], the EC50 stood at 5960 nM and the “% max agonist effect (Emax)” value amounted to 80.4%.
As for `CS(=O)(=O)N[C@H]1CCN(c2ncc(Cl)c(O)c2F)[C@H]1CO[C@H]1CC[C@@H](c2cccc(F)c2)CC1` [Example 98, N-((2R,3S)-1-(5-chloro-3-fluoro-4-hydroxypyridin-2-yl)-2-((((CIS)-4-(3-fluorophenyl)cyclohexyl)oxy)methyl)pyrrolidin-3-yl)methanesulfonamide], the EC50 is 0.76 nM and the “% max agonist effect (Emax)” value worked out at 101.4%.
As for `CS(=O)(=O)N[C@H]1CCN(c2cc(O)c(Cl)cn2)[C@H]1CO[C@H]1CC[C@@H](c2ccccc2)CC1` [Example 113, N-((2R,3S)-1-(5-chloro-4-hydroxypyridin-2-yl)-2-((((CIS)-4-phenylcyclohexyl)oxy)methyl)pyrrolidin-3-yl)methanesulfonamide], the EC50 amounted to 1.1 nM and the “% max agonist effect (Emax)” value was found to be 102.4%.
Regarding `CS(=O)(=O)N[C@H]1CCN(c2ccnc(C#N)c2)[C@H]1CO[C@H]1CC[C@@H](c2ccccc2)CC1` [Example 25, N-((2R,3S)-1-(2-cyanopyridin-4-yl)-2-((((CIS)-4-phenylcyclohexyl)oxy)methyl)pyrrolidin-3-yl)methanesulfonamide], the EC50 came to 5770 nM and the “% max agonist effect (Emax)” value came to 78.6%.
In the same order, the values of `COc1cc(N2CC[C@H](NS(C)(=O)=O)[C@@H]2CO[C@H]2CC[C@@H](c3ccccc3)CC2)ccn1` [Example 59, N-((2R,3S)-1-(2-methoxypyridin-4-yl)-2-((((CIS)-4-phenylcyclohexyl)oxy)methyl)pyrrolidin-3-yl)methanesulfonamide] are 2860 nM and 87.2%.
